In patent US9018173B2, “Materials and methods for suppressing inflammatory and neuropathic pain” (Indiana University Research and Technology Corp., priority 2010, dated 2015):
“Also recorded” adds a separate entry of the source. Residues, ends and D or L forms follow the SMILES beside them.

Tests used:
[1] = Biodistribution after i.p. injection (dot blot, FITC fluorescence); settings: 25 mg/kg i.p.
[2] = system: depolarization-induced Ca2+ influx in hippocampal neurons; experiment: Fura-2 calcium imaging of hippocampal neurons; type: cell-based, rat; settings: expressed from plasmid; KCl 30 mM; Fura-2AM
Description: Referring now to FIG. 19. Overexpressed CBD3 or TAT-CBD3 reduces Ca^2+ influx predominantly via N-Type Ca^2+ channels. (FIGS. 19.A and 19.B) hippocampal neurons cultured for 5 days in vitro were transfected with DNA constructs encoding CBD3 or a scramble sequence using Lipofectamine, and then loaded with the ratiometric Ca^2+-sensitive dye Fura-2AM (3 μM). Changes in [Ca^2+]c, in response to plasma membrane depolarization with potassium chloride (KCl, 30 mM), were recorded using time-lapse, wide-field fluorescence microscopy. […] In both panels, n indicates the number of neurons from which Fura-2 fluorescence was recorded. […] (FIG. 19.D) Ca^2+ influx was monitored in DRG neurons using Fura-2AM. […] Changes in the Fura-2 F340/F380 were monitored for 10 min following stimulation with 45 mM KCl. […]
Isolation and maintenance of primary hippocampal neurons for calcium imaging. […] For fluorescence measurements, neurons were plated on glass-bottomed Petri dishes without preplated glia as previously described. […]
Calcium imaging. […] Osmolarity of the solutions was measured with the osmometer Osmette II™ (Precision Systems Inc., Natick, Mass.). […] Fluorescence was recorded through a 505 nm dichroic mirror at 535±25 nm. The fluorescence images were taken every 5 seconds during the time-course of the experiment using the minimal exposure time that provided acceptable image quality. […]

In the case of `CC(C)C[C@H](NC(=O)CNC(=O)[C@H](CCCNC(=N)N)NC(=O)[C@@H]1CCCN1C(=O)[C@@H](NC(=O)CNC(=O)[C@H](CCCNC(=N)N)NC(=O)[C@H](CC(C)C)NC(=O)[C@H](CCC(=O)O)NC(=O)[C@H](C)NC(=O)[C@H](CC(C)C)NC(=O)[C@H](CCCNC(=N)N)NC(=O)[C@H](CO)NC(=O)[C@H](CCCNC(=N)N)NC(=O)[C@H](C)NC(=O)[C@H](CCCNC(=N)N)NC(=O)[C@H](CCCNC(=N)N)NC(=O)[C@H](CCCNC(=N)N)NC(=O)[C@H](CCC(N)=O)NC(=O)[C@H](CCCNC(=N)N)NC(=O)[C@H](CCCNC(=N)N)NC(=O)[C@H](CCCCN)NC(=O)[C@H](CCCCN)NC(=O)[C@H](CCCNC(=N)N)NC(=O)CNC(=O)[C@@H](N)Cc1ccc(O)cc1)C(C)C)C(=O)O` [TAT-CBD3] (H-YGRKKRRQRRRARSRLAELRGVPRGL-OH; N-terminus and C-terminus assumed), the “tissue distribution (dot blot, anti-TAT antibody)” value ([1]; 15 min post-injection) is reported as “detected in spleen and largely concentrated in lumbar dorsal root ganglion (DRG) and lumbar section of the spinal cord” and the “tissue distribution (dot blot, anti-TAT antibody)” value ([1]; 1 h post-injection) is reported as “also detected in kidney, brain, spinal cord and was abundant in the DRG”.

For ARSRLAELRGVPRGL (CBD3), the depolarization-induced calcium influx [2] was “reduced depolarization-induced calcium influx; also recorded: blocked depolarization-induced calcium signaling”.
